For 8 compounds, Kd results are on record in ChEMBL document CHEMBL1157484, “Protein subtype-targeting through ligand epimerization: talose-selectivity of galectin-4 and galectin-8” (Bioorg Med Chem Lett, 2008).

A short description of test [1]: Binding affinity to human galectin8N by fluorescence polarization assay. (In fluorescence polarisation assays a small probe gives low polarisation when free and higher when bound to something large.)
In the next test the target is T1, Galectin-2 (Homo sapiens, UniProt P05162).
T1 sequence (P05162 whole entry): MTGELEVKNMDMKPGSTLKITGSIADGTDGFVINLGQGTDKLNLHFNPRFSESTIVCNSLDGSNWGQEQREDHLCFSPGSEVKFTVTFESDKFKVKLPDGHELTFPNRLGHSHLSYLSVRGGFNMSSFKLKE
The experiment in a line: Binding affinity to human galectin2 by fluorescence polarization assay.

Test [2] can be described thus: Binding affinity to human galectin4N by fluorescence polarization assay.
Test [3] is described as follows: Binding affinity to human galectin4C by fluorescence polarization assay.
The nature of test [4]: Binding affinity to human galectin9N by fluorescence polarization assay.
The next test has as its target Galectin-1 (Homo sapiens, UniProt P09382). The experiment in a line: Binding affinity to human galectin1 by fluorescence polarization assay.
A further test addresses Galectin-3 (Homo sapiens, UniProt P17931). The experiment in a line: Binding affinity to human galectin3 by fluorescence polarization assay.

Structures are written as SMILES.

Chain of Galectin-3 (P17931 whole entry): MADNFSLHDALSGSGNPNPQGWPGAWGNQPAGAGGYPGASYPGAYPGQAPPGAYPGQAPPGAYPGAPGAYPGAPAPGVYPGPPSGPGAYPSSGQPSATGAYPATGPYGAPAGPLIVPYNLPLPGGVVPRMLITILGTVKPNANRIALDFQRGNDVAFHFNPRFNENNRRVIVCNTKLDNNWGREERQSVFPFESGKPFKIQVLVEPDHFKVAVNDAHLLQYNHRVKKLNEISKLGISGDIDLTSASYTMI
Chain of Galectin-1 (P09382 whole entry): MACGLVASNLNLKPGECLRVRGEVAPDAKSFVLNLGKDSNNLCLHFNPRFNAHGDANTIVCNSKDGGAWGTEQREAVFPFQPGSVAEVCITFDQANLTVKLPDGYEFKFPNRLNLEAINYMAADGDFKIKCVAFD

A word on the Kd: it is the equilibrium constant for the complex coming apart. On to `CO[C@@H]1O[C@H](CO)[C@H](O)[C@H](O)[C@@H]1O`, for which the dissociation constant (Kd) in test [1] was 1.5 mM; at Galectin-2, greater than 10 mM; in test [2], greater than 10 mM; in test [3] it was 10 mM; in test [4], 4.6 mM.
On to `CO[C@@H]1O[C@H](CO)[C@H](O)[C@H](OC(=O)c2ccc(C)cc2)[C@@H]1OS(=O)(=O)O`, for which the Kd in test [1] was 1.1 mM; at Galectin-2, greater than 4 mM; in test [2] it was greater than 4 mM; on Galectin-1, greater than 4 mM; in test [3], 3 mM; in test [4], greater than 4 mM. This compound also registered an equilibrium dissociation constant (Kd) on Galectin-3 of 0.25 mM.
Regarding `CO[C@@H]1O[C@H](CO)[C@H](O)[C@H](OC(=O)c2ccc(C)cc2)[C@@H]1OC(=O)c1ccc(C)cc1`, the Kd is 3.6 mM in test [1]; greater than 4 mM on Galectin-2; greater than 4 mM in test [2]; 1.8 mM at Galectin-1; 0.16 mM in test [3]; greater than 4 mM in test [4]. The same compound yielded an equilibrium dissociation constant (Kd) at Galectin-3 of 0.7 mM.
Regarding `CO[C@@H]1O[C@H](CO)[C@H](O)[C@H](OC(=O)c2ccc(C)cc2)[C@@H]1O[PH](=O)O`, the Kd at Galectin-2 is 1.5 mM; in test [2] it was greater than 4 mM; at Galectin-1, greater than 4 mM; in test [3] it was greater than 4 mM; in test [4], greater than 4 mM; on Galectin-3 it was 2.3 mM.
Regarding `CO[C@@H]1O[C@H](CO)[C@H](O)[C@H](OC(=O)c2ccc(C)cc2)[C@@H]1OP(=O)(O)OC`, the Kd in test [1] is 1 mM; on Galectin-2, greater than 4 mM; in test [2], greater than 4 mM; at Galectin-1, greater than 4 mM; in test [3] it was greater than 4 mM; in test [4], greater than 4 mM. The compound further yielded an equilibrium dissociation constant (Kd) at Galectin-3 of 0.6 mM.
For `CO[C@@H]1O[C@H](CO)[C@H](O)[C@H](OC(=O)c2ccc(C)cc2)[C@@H]1OC(C)=O`, the Kd in test [1] was greater than 4 mM; on Galectin-2 it was greater than 4 mM; in test [2] it was greater than 4 mM; on Galectin-1 it was greater than 4 mM; in test [3], 1.6 mM; in test [4] it was greater than 4 mM. For the same compound, the Kd on Galectin-3 was 0.55 mM.
Consider `CO[C@@H]1O[C@H](CO)[C@H](O)[C@H](O)[C@H]1O`, for which the Kd in test [1] is 6.3 mM; at Galectin-2, 13 mM; in test [2], 6.6 mM; in test [3], greater than 10 mM; in test [4], 1.2 mM.
As to `CO[C@@H]1O[C@H](CO)[C@H](O)[C@H](OC(=O)c2ccc(C)cc2)[C@@H]1O`, the equilibrium dissociation constant (Kd) was 0.4 mM in test [1]; greater than 4 mM in test [2]; 2 mM at Galectin-1; greater than 4 mM in test [4]; 1.4 mM at Galectin-3.
